Patent US9855341B2, “Formulations and carrier systems including farnesylthiosalycylic moities” (University of Pittsburgh—Of the Commonwealth System of …, priority 2014, dated 2018)

Experiments:
[1] = Source text: Changes in body weight and mouse survival were monitored daily for two weeks. The MTD was defined as the maximal dose that causes neither greater than 15% of body weight loss nor mouse mortality within two weeks after administration. See Lu, J.; Huang, Y.; Zhao, W.; Marquez, R. T.; Meng, X.; Li, J.; Gao, X.; Venkataramanan, R.; Wang, Z.; Li, S., PEG-derivatized embelin as a nanomicellar carrier for delivery of paclitaxel to breast and prostate cancers. Biomaterials, 34, 1591-600 (2013).
[2] = mouse, in vivo, iv
Experimental: The blood samples were collected in heparinized tubes at different time points (3 min, 8 min, 15 min, 30 min, 1 h, 2 h, 4 h, 8 h, and 12 h) post-injection. The blood was centrifuged (2,500 rpm, 10 min) and plasma was collected for the analysis. […] Non-compartmental pharmacokinetic analysis was done by WinNonlin. […] At day 1 post-injection, tumor tissues and major organs were collected from the mice. The tissues were weighed and homogenized using Homogenizer PowerGen 500 (Fisher Scientific). […] The solutions were centrifuged (2,500 rpm, 10 min) and the supernatant was used for HPLC measurement.

[3] = test system: HCT-116 human colon carcinoma cell line; test: In vitro cytotoxicity, HCT-116; format: cell-based; details: HCT-116 cells
Source text: Several cancer cell lines were included in the cytotoxicity studies including murine breast cancer cells 4T1.2, human colon carcinoma cell line HCT-116, and two human prostate cancer cell lines PC-3 and DU145. […] A similar result was obtained in human colon cancer cells, HCT-116 as illustrated in FIG. 3B. […] Without limitation to any mechanism, it is likely that FTS is much more readily released from PEG5KFTS2(L) by esterases following intracellular delivery.
Incorporation of an additional disulfide linkage into PEG5K-FTS2(L) led to further improvement in cytotoxicity. […] Without limitation to any mechanism, this observation may, for example, be a result of enhanced intracellular delivery of FTS via PEG5K-S—S-FTS2(L).
The cytotoxicity of drug-free PEG5K-Fmoc-FTS2 and PEG5K-FTS2 micelles was examined in 4T1.2 and HCT-116 tumor cells and compared to free FTS (see FIGS. 12A and 12B, respectively). […] Without limitation to any mechanism, it is likely that the cytotoxicity of PEG-FTS comes from the released FTS following intracellular delivery.
FIGS. 13A-C show the cytotoxicity of TAXOL and PTX formulated in PEG5K-Fmoc-FTS2 micelles in several cancer cell lines.
See Zhang, X.; et al., PEG-farnesylthiosalicylate conjugate as a nanomicellar carrier for delivery of paclitaxel. Bioconjug. Chem., 24, 464-72 (2013). The cytotoxicity of free PEG5K-FTS2, PEG5K-Fmoc-FTS2 and FTS was also examined.

[4] = test system: 4T1.2 mouse breast cancer cell line; test: In vitro cytotoxicity, 4T1.2; format: cell-based; details: 4T1.2 cells
[5] = test system: PC-3 human prostate cancer cell line; test: In vitro cytotoxicity, PC-3; format: cell-based; details: PC-3 cells
Source text: FIG. 9B illustrates cytotoxicity of FTS and FTS-amide in a PC-3 human prostate cancer cell line.
As described above, FTS and derivatives thereof can be used in the carrier agents hereof. In a number of embodiments (for example, for drug delivery), biologically active derivatives of FTS are used. […] Similar results were obtained in our in vitro cytotoxicity study with HCT-116 and PC-3 cancer cell lines (see FIGS. 9A and 9B).

[6] = test system: human prostate cancer xenograft model (PC-3); test: NIRF optical imaging biodistribution; details: PC-3 xenograft, i.v.
Experimental: Biodistribution and tumor-targeting efficiency of PEG5K-Fmoc-FTS2 micelles were tested in a human prostate cancer xenograft model (PC-3). DiD, a hydrophobic near infrared fluorescence (NIRF) dye with high penetration, low tissue absorption and scattering was loaded into the PEG5K-Fmoc-FTS2 micelles for tissue imaging. […] After last imaging at 96 h post-injection, tumors and major organs were excised for ex vivo imaging.
At indicated times (0.5 h, 6 h, 24 h, 48 h, 72 h and 96 h), the mice were scanned using a Carestream Molecular Imaging System, In vivo Multispectral FX PRO, with the excitation at 630 nm and the emission at 700 nm using a 30 s exposure time. The mice were anesthetized by isoflurane inhalation before each imaging. After 96 h, the mice were euthanized by CO2 overdose. The tumor and major organs were excised for ex vivo imaging.

## COc1cccc2c1C(=O)c1c(O)c3c(c(O)c1C2=O)C[C@@](O)(C(=O)CO)C[C@@H]3O[C@H]1C[C@H](N)[C@H](O)[C@H](C)O1 [DOX, doxorubicin]
[1]; 15 mg DOX/kg
  decrease in the body weight: > 15%
  mortality: death of all treated mice
[1]; dose of 10 mg/kg (DOX)
  tolerability: well tolerated
[2]
  Vd: 7.34 L/kg

## CC(C)=CCC/C(C)=C/CC/C(C)=C/CSc1ccccc1C(=O)O [FTS, S-trans, trans-farnesylthiosalicylic acid]
[3]
  cytotoxicity (tumor cell growth inhibition): inhibited the tumor cell growth in a concentration-dependent manner
[4]
  cytotoxicity (tumor cell growth inhibition): inhibited the tumor cell growth in a concentration-dependent manner

## CC(C)=CCC/C(C)=C/CC/C(C)=C/CSc1ccccc1C(N)=O [FTS-amide, S-trans, trans-farnesylthiosalicylic acid amide]
[3]
  cytotoxicity (tumor cell growth inhibition): more effective than the parent compound in inhibiting the tumor cell growth
[5]
  cytotoxicity (tumor cell growth inhibition): more effective than the parent compound in inhibiting the tumor cell growth

## CCCCCCCCCCCCCCCCCCN1C(=CC=CC=CC2=[N+](CCCCCCCCCCCCCCCCCC)c3ccccc3C2(C)C)C(C)(C)c2ccccc21.[O-][Cl+3]([O-])([O-])[O-] [free DiD, 1,1′-dioctadecyl-3,3,3′,3′-tetramethylindodicarbocyanine perchlorate]
[6]
  tumor accumulation (NIRF imaging): No obvious tumor accumulation
